Results from article PMC5238433 (Scientific Reports, 2017).
Entries after “also recorded” stand apart in the source; their conditions may differ.

How the values were obtained:
APJ homodimer = test: MALDI-TOF MS of immunoprecipitated APJ complex after treatment with HIV TAT-TMD interference peptides; type: binding, human; conditions: peptide 4 μM, 60 min, 37 °C; for species detected by MALDI-TOF MS / effect of peptide on APJ homodimerization: cells transfected with APJ, anti-APJ immunoprecipitation, MALDI-TOF linear positive mode, mass range 4–10 kDa, sinapic acid; for binding to APJ (peptides encoding TMDs, MS): MALDI-TOF
From the text: TMDs are important for the formation of head-to-head interfaces in class A GPCR dimers. To identify dimerization interfaces in the seven TMDs of APJ, the effects of cell-penetrating interference peptides (containing the sequence of the hydrophobic transmembrane helices) on APJ homodimerization were examined by MS.
Figure 5 The effects of interference peptides on apelin receptor (APJ) homodimerization as measured by matrix assisted laser desorption […] time-of-flight (MALDI-TOF) mass spectrometry.
The identity of the TMD peptide sequences was analyzed with liquid chromatography (LC)-MS.
MS was performed to identity APJ dimer interfaces in samples treated with TMD peptides. Cells were transfected with APJ and, 48 h later, treated with or without the indicated HIV TAT-TMD fused peptides (4 μM) for 60 min at 37 °C. Extracted proteins were immunoprecipitated using an anti-APJ antibody. Protein A/G PLUS-agarose beads were incubated with proteins for 2 h and washed four times with lysis buffer. The APJ complex was eluted from beads as described previously. Then, the endogenous APJ complex was analyzed with an AXIMA matrix-assisted laser desorption/ionization time-of-flight (MALDI-TOF) system (Shimazdu) in linear positive mode. The mass range was 4–10 kDa and the matrix was Sinapic Acid (SA), 10 mg/ml (50% acetonitrile (ACN), 50% H2O, 0.1% […] (TFA)). The results were calibrated with a Shimadzu MALDI calibration kit (Laser BioLabs).

[1] = test system: APJ dimer (APJ-Rluc / APJ-EGFP); test: BRET, effect of interference peptides on APJ homodimers; type: cell-based, human; conditions: for effect on APJ dimer BRET signals / reduction of APJ dimer BRET signals: CHO cells, APJ-Rluc:APJ-EGFP 1:3, peptide 4 μM, 37 °C, four independent experiments in triplicate; for reduction of APJ dimer BRET signals: P < 0.01, one range for TMD1, 2, 3 and 4; for disruption of APJ (homo)dimerization (statement in words): interference peptides 4 μM, in vitro, by BRET and MS
From the text: Figure 7 The effect of interference peptides on apelin receptor (APJ) dimers. […] BRET[1] was detected as described above.

[2] = test system: APJ homodimers (APJ-Rluc / APJ-EGFP); test: BRET, effect of agonist/antagonist treatment on APJ homodimerization; type: cell-based, human; conditions: CHO cells co-expressing APJ-Rluc and APJ-EGFP (1:1); concentration not given; four independent experiments in triplicate
Experimental: We further assessed APJ interactions by co-immunoprecipitation (Co-IP), BRET[1], and Förster resonance energy transfer (FRET). […] BRET studies were performed to confirm APJ homodimerization.
Figure 2 Assessment of apelin receptor (APJ) dimerization using co-immunoprecipitation (Co-IP) and bioluminescence resonance energy transfer (BRET) assays. (A) Assessment of APJ homodimerization with Co-IP. Chinese hamster ovary (CHO) cells were either not transfected (mock) or transfected with HA-APJ, Myc-APJ, or both (co-transfection). HA-APJ and Myc-APJ were also mixed (mix). Immunoprecipitated samples were resolved by SDS-PAGE and immunoblotted with an anti-Myc antibody (upper panel). […] (B) Assessment of APJ homodimerization with BRET[1]. (C) BRET saturation curves. (D) Assessment of effects of agonist-treatment on dimerization by BRET[1]. For BRET, four independent experiments were performed with triplicate samples and the results were expressed as the mean ± SEM of four experiments ([…] versus control group; NS, not significant versus unstimulated cells).
(§1) To monitor constitutive APJ interactions, CHO cells were transfected with APJ-Rluc and APJ-EGFP plasmids at a ratio of 1:1, 1:2, 1:3, 1:4, 1:5, and 1:6 to express a constant amount of donor-labeled protein with increasing amounts of acceptor-labeled protein. At 24 h post-transfection, cells were trypsinized and plated on a 96 well microplate for 24 h in HEPES-buffered phenol red-free medium (Invitrogen, Life Technologies). Coelenterazine h (5 μM; Promega) was added for BRET measurements using a Tristar LB941 plate reader (Berthold) with an Rluc filter (400–475 nm) and a EGFP filter (500–550 nm). To monitor the induced interactions of APJ, BRET signals were measured as described above, with slight modifications. […] To measure the effects of interference peptides on APJ dimers, CHO cells were co-transfected with APJ-Rluc and APJ-EGFP (1:3) and incubated with interference peptides corresponding to TMD1, TMD2, TMD3, TMD4, TMD5, TMD6, and TMD7 at 37 °C (4 μM), and BRET[1] detected as described above.

[3] = test system: APJ oligomers (APJ-Rluc, APJ-VN173, APJ-VC155); test: BiFC-BRET, effect of agonist/antagonist treatment on APJ oligomerization; type: cell-based, human; conditions: CHO cells co-expressing APJ-Rluc, concentration not given, four independent experiments in triplicate
Experimental: Additionally, BiFC-BRET assays were performed to detect APJ oligomerization in living cells. Two non-fluorescent fragments (pCE-BiFC-VN173 and pCE-BiFC-VC155) of Venus fluorescent protein were separately fused to APJ (APJ-VN173 and APJ-VC155) (Fig. 4A). CHO cells were then co-transfected with APJ-Rluc, APJ-VN173, and APJ-VC155 and observed with TIRFM.
Figure 4 Assessment of apelin receptor (APJ) oligomerization with bioluminescence resonance energy transfer - bimolecular fluorescence complementation (BiFC-BRET). (A) Principle of BiFC-BRET. The assay examines the formation of functional Venus by the complementation of protein fragments fused to APJ. Association of APJ enables formation of a bimolecular fluorescent complex. If all three tagged APJ proteins interact, BRET can occur. (B) TIRFM detection of APJ dimers (yellow particles) after BiFC. (C) Assessment of APJ oligomerization with BiFC-BRET. (D) Assessment of agonist-induced oligomerization.

APJ dimers = test: BiFC-BRET, Gα-Rluc8, APJ-VN173 and APJ-VC155, G protein activation by APJ dimers; type: cell-based, human
From the text: To explore the novel signaling of APJ dimers, we examined the signaling of APJ dimers using BiFC-BRET. […] Cells expressing Gα-Rluc8 and APJ-Venus served as a positive control, and two negative controls (Gα-Rluc8 and APJ-VN173, Gα-Rluc8 and APJ-VC155A) were also introduced. […] (Fig. S5). […] In addition, we have measured the expression levels of donor[23] and acceptor before experiment (Fig. 10).
Kinetics of ligand-induced BRET between Gα-Rluc8 (8 subtypes), APJ-VN173, and APJ-VC155. […] (A) Gαi1-Rluc8, APJ-VN173, and APJ-VC155; (B) Gαi2-Rluc8, APJ-VN173, and APJ-VC155; (C) Gαi3-Rluc8, APJ-VN173, and APJ-VC155; (D) Gαq-Rluc8, APJ-VN173, and APJ-VC155; (E) Gαs-Rluc8, APJ-VN173, and APJ-VC155; (F) Gαo-Rluc8, APJ-VN173, and APJ-VC155; (G) Gα12-Rluc8, APJ-VN173, and APJ-VC155; H. Gα13-Rluc8, APJ-VN173, and APJ-VC155.
APJ-VN173 and APJ-VC155 were generated by fusing either the N-terminal fragment of Venus (Venus N: amino acids 1–172) or the C-terminal fragment of Venus (Venus C: amino acids 156–239) to the C-terminus of the wild-type (wt) full-length apelin receptor. Gαi1-Rluc8, Gαi2-Rluc8, Gαi3-Rluc8, Gαq-Rluc8, Gαoa-Rluc8, and Gαs-Rluc8, pET-21a(+)-GFP, FLAG-BirA-APJ, and HA-AP-APJ were constructed as described previously.
as §1

[4] = APJ dimers (APJ-VN173 + APJ-VC155), CHO cells, 1 μM apelin-13, 30 min

## YGRKKRRQRRRVSGAVATAVLWVLAALLAMPVMV [TMD4, HIV TAT-fused interference peptide derived from human APJ transmembrane domain 4]
APJ homodimer
  species detected by MALDI-TOF MS / effect of peptide on APJ homodimerization: TMD4, TMD4 dimers, TMD4 tetramers, APJ, [APJ + TMD4], APJ dimers, and [APJ + TMD4] dimers were detected
  binding to APJ (peptides encoding TMDs, MS): can bind to APJ
[1]
  effect on APJ dimer BRET signals: significantly reduced APJ dimer BRET signals
  reduction of APJ dimer BRET signals: 55–75%
  disruption of APJ (homo)dimerization (statement in words): disrupted APJ dimerization; also recorded: can effectively disrupt the formation of APJ homodimers; also recorded: disrupted APJ homodimerization in vitro

## apelin-36: APJ agonist purchased from Phoenix Pharmaceuticals (LVQPRGSRNGPGPWQGGRRKFRRQRPRLSHKGPMPF; Apelin-36; UniProt Q9ULZ1 42-77, looked up)
[2]
  BRET signal versus unstimulated cells (APJ homodimer formation): not significantly different to those of unstimulated cells
[3]
  BRET ratio versus unstimulated cells (APJ oligomerization, BiFC-BRET): the same as that of unstimulated cells

## LMNIFPYCTCISYVNSCLNPFLYYGRKKRRQRRR [TMD7, HIV TAT-fused interference peptide derived from human APJ transmembrane domain 7]
APJ homodimer
  species detected by MALDI-TOF MS / effect of peptide on APJ homodimerization: lacked the effect demonstrated by TMD1, 2, 3, and 4; also recorded: TMD7, APJ, and APJ dimers were detected
[1]
  effect on APJ dimer BRET signals: no significant effect
  disruption of APJ (homo)dimerization (statement in words): but not TMD5, 6, and 7, disrupted APJ dimerization

## VSSTTVGFVVPFTIMLTCYFFIAYGRKKRRQRRR [TMD5, HIV TAT-fused interference peptide derived from human APJ transmembrane domain 5]
APJ homodimer
  species detected by MALDI-TOF MS / effect of peptide on APJ homodimerization: lacked the effect demonstrated by TMD1, 2, 3, and 4; also recorded: TMD5, APJ, and APJ dimers were detected
[1]
  effect on APJ dimer BRET signals: no significant effect
  disruption of APJ (homo)dimerization (statement in words): but not TMD5, 6, and 7, disrupted APJ dimerization

## YGRKKRRQRRRFIASLAVADLTFVVTLPLWATYT [TMD2, HIV TAT-fused interference peptide derived from human APJ transmembrane domain 2]
APJ homodimer
  species detected by MALDI-TOF MS / effect of peptide on APJ homodimerization: TMD2, TMD2 dimers, TMD2 tetramers, APJ, [APJ + TMD2], APJ dimers, and [APJ + TMD2] dimers were detected
  binding to APJ (peptides encoding TMDs, MS): can bind to APJ
[1]
  effect on APJ dimer BRET signals: significantly reduced APJ dimer BRET signals
  reduction of APJ dimer BRET signals: 55–75%
  disruption of APJ (homo)dimerization (statement in words): disrupted APJ dimerization; also recorded: can effectively disrupt the formation of APJ homodimers; also recorded: disrupted APJ homodimerization in vitro

## IFVNMYASVFCLTGLSFDRYLAIYGRKKRRQRRR [TMD3, HIV TAT-fused interference peptide derived from human APJ transmembrane domain 3]
APJ homodimer
  species detected by MALDI-TOF MS / effect of peptide on APJ homodimerization: TMD3, TMD3 dimers, TMD3 tetramers, APJ, [APJ + TMD3], APJ dimers, and [APJ + TMD3] dimers were detected
  binding to APJ (peptides encoding TMDs, MS): can bind to APJ
[1]
  effect on APJ dimer BRET signals: significantly reduced APJ dimer BRET signals
  reduction of APJ dimer BRET signals: 55–75%
  disruption of APJ (homo)dimerization (statement in words): disrupted APJ dimerization; also recorded: can effectively disrupt the formation of APJ homodimers; also recorded: disrupted APJ homodimerization in vitro

## [Ala13]apelin-13
[2]
  BRET signal versus unstimulated cells (APJ homodimer formation): not significantly different to those of unstimulated cells

## YGRKKRRQRRRRLLSIIVVLVVTFALCWMPYHLV [TMD6, HIV TAT-fused interference peptide derived from human APJ transmembrane domain 6]
APJ homodimer
  species detected by MALDI-TOF MS / effect of peptide on APJ homodimerization: lacked the effect demonstrated by TMD1, 2, 3, and 4; also recorded: TMD6, APJ, and APJ dimers were detected
[1]
  effect on APJ dimer BRET signals: no significant effect
  disruption of APJ (homo)dimerization (statement in words): but not TMD5, 6, and 7, disrupted APJ dimerization

## apelin-13
[2]
  BRET signal versus unstimulated cells (APJ homodimer formation): not significantly different to those of unstimulated cells
APJ dimers; [4]
  G protein activation, Gα12: not Gαi1, Gαi2, Gαs, Gα12, Gα13, and Gαo
  G protein activation, Gα13: not Gαi1, Gαi2, Gαs, Gα12, Gα13, and Gαo
  G protein activation, Gαi1: not Gαi1, Gαi2, Gαs, Gα12, Gα13, and Gαo
  G protein activation, Gαi2: not Gαi1, Gαi2, Gαs, Gα12, Gα13, and Gαo
  G protein activation, Gαi3: activate only Gαi3 and Gαq
  G protein activation, Gαo: not Gαi1, Gαi2, Gαs, Gα12, Gα13, and Gαo
  G protein activation, Gαq: activate only Gαi3 and Gαq
  G protein activation, Gαs: not Gαi1, Gαi2, Gαs, Gα12, Gα13, and Gαo
APJ dimers; Gα-Rluc8 (8 subtypes), CHO cells, 1 μM apelin-13
  ligand-induced BRET change, cells expressing APJ tagged with VN173 and VC155: an increase in BRET was observed only for Gαi3 and Gαq
APJ dimers; Gα-Rluc8 with APJ-VN173 only or APJ-VC155 only, 1 μM apelin-13
  ligand-induced BRET change, negative controls: No changes in BRET were observed
